The nature of experiment [1]: Proton Relaxation Enhancement (PRE) titration of Gd-complexes (GBCA) with HPTS: binding parameters Ka and Rb. The settings on record: for Ka: interaction of GBCA (1 mM) with HPTS, Hepes/NaCl; for Ka / Rb: T = 25° C., 21.5 MHz, pH = 7.0 ± 0.1; for Rb: relaxivity of the adduct with HPTS at saturation.
Protocol: The binding parameters Ka and Rb between the investigated Gd-complexes and the polyarylene additives were calculated by using the well-established Proton Relaxation Enhancement (PRE) technique.
This method consists in measuring the variation in the longitudinal proton Relaxation Rates (R1=1/T1) of the paramagnetic solutions upon increasing the concentration of the interacting substrate. By this method, the binding parameters Ka (the affinity constant) and Rb (the relaxivity of the resulting adducts at saturation) can be determined. To this end, solutions of the Gd-complexes (1 mM) were titrated with the polyarylenes compounds and non-hydrophobic reference compounds (in the concentration range 1-40 mM, leading to the saturation of the contrast agent), at 21.5 MHz and 298 K, in Hepes/NaCl buffer solution ([hepes]=3.8 mM, [NaCl]=150 mM) at pH 7.0-7.2.
Relaxation rates were measured on a Stelar SpinMaster Relaxometer (Stelar, Mede, PV, It) operating at 21.5 MHz by means of the inversion recovery method (16 experiments, two scans). The reproducibility of the T data was ±0.5%.
Analysis of data was carried out by using origin 9.0 software.
Experiment [2] can be described thus: Proton Relaxation Enhancement (PRE) titration of ProHance with polyarylenes and reference compounds: Ka and Rb. The format is binding. The settings on record: for Rb/r1p: adduct with ProHance relative to free ProHance; for Ka: interaction with ProHance (1 mM), Hepes/NaCl; for Ka / Rb: T = 25° C., 21.5 MHz, pH = 7.0 ± 0.1; for Rb: relaxivity of the adduct with ProHance at saturation. The protocol:
(§1) This method consists in measuring the variation in the longitudinal proton Relaxation Rates (R1=1/T1) of the paramagnetic solutions upon increasing the concentration of the interacting substrate. […] To this end, solutions of the Gd-complexes (1 mM) were titrated with the polyarylenes compounds and non-hydrophobic reference compounds (in the concentration range 1-40 mM, leading to the saturation of the contrast agent), at 21.5 MHz and 298 K, in Hepes/NaCl buffer solution ([hepes]=3.8 mM, [NaCl]=150 mM) at pH 7.0-7.2.
(§2) The reproducibility of the T data was ±0.5%.
The least-squares fit of the R1 versus substrate concentration binding isotherms (FIGS. 4 and 5) enabled us to calculate the affinity constants and the relaxivities of the adducts reported in tables 2 and 3 below.
Other aromatic-containing structures, beside HPTS, were considered for the interaction.

Experiment [3] is described as follows: Longitudinal relaxivity r1p of the free Gd-complex (relaxometry, 21.5 MHz). The format is physicochemical. The settings on record: T = 25° C., B0 = 21.5 MHz, pH = 7.0 ± 0.1. The protocol:
as §1, §2

A short description of experiment [4]: 1H NMRD profiles of ProHance free and in the presence of 40 mM HPTS. The format is physicochemical. The settings on record: 1 mM ProHance with 40 mM HPTS vs ProHance as-such; 298 K; 0.01-70 MHz. On the procedure:
In order to investigate if the enhancement of the relaxivity is maintained at different magnetic field strength, the proton 1/T1 NMRD profiles were measured at 298 K on 1 mM ProHance solutions in the absence and in the presence of 40 mM HPTS. Measurements were carried out on a fast field-cycling Stelar relaxometer over a continuum of magnetic field strengths from 0.00024 to 0.47 T (corresponding to 0.01-20 MHz proton Larmor Frequency). The relaxometer operates under computer control with an absolute uncertainty in 1/T1 of ±0.1%. Additional data points in the range 21.5-70 MHz were obtained on the Stelar SpinMaster relaxometer. The concentration of the solutions used for the relaxometric characterization was determined according to a previously reported relaxometric method (Arena, F. et al, Bioconjugate Chem. 2011, 22, 2625-2635).
The analysis provides the evolution of the relaxivity of the two species as a function of the magnetic field.

The subject of experiment [5] is TS/A breast cancer cells transplanted on Balb/c mice. As to conditions: T1w MRI at 7.1T, injection of 0.15 mmol/Kg ProHance alone or with 0.45 mmol/Kg HPTS.
Protocol: Mice were injected with 0.15 mmoles/kg of ProHance e 0.45 mmoles/kg of HPTS (corresponding to 150-220 μL for 20-30 g mice).
In vivo experiments were carried out on xenograpt murine models of cancer.
Female 10-12 weeks Balb/c mice (Charles River Laboratories, Calco, Italy) were inoculated subcutaneously in the flank with 0.1 mL of a suspension containing 5×10^5 TS/A mammary breast cancer cell lines (Nanni P. et al. Clin. Exp. Metastasis 1983, 1, 373-380).
For MRI acquisition, mice were anesthetized by intramuscular injection of a mixture of 20 mg/kg tiletamine/zolazepam (Zoletil 100, Virbac, Milan, Italy) 20 mg/kg plus 5 mg/kg xylazine (Rompun; Bayer, Milan, Italy). A permanent vein access was obtained by inserting a PE10 catheter into the tail vein.
MR images have been acquired, pre and post injection of GBCA, at 7.1T by using Bruker Avance 300 spectrometer equipped with a Micro 2.5 microimaging probe. Mice were injected with 0.15 mmol/Kg of ProHance followed (after 1 h when the wash-out of the GBCA was considered complete) by the injection of a mixture of ProHance and HPTS (0.15 mmol/Kg ProHance and 0.45 mmol/Kg HPTS).
Tumor volume and morphology were determined by multislices anatomical T2w images. A ROI was manually drawn and the slice volume was calculated. […]

SMILES strings stand for the structures. “Also recorded” adds a separate entry of the source.

As for `CNC[C@H](O)[C@@H](O)[C@H](O)[C@H](O)CO.CNC[C@H](O)[C@@H](O)[C@H](O)[C@H](O)CO.O=C([O-])CN(CCN(CC(=O)[O-])CC(=O)O)CCN(CC(=O)O)C(COCc1ccccc1)C(=O)[O-].[Gd+3]` (stereo not shown) [MultiHance, gadobenate dimeglumine], the Ka entry in experiment [1] was “no binding is observed; also recorded: No interaction”.

On to `CNC[C@H](O)[C@@H](O)[C@H](O)[C@H](O)CO.CNC[C@H](O)[C@@H](O)[C@H](O)[C@H](O)CO.O=C([O-])CN(CCN(CC(=O)[O-])CC(=O)O)CCN(CC(=O)[O-])CC(=O)O.[Gd+3]` [Magnevist], for which the Ka result in experiment [1] is “no binding is observed; also recorded: No interaction”.

For the compound `O=S(=O)(O)c1cccc2c(S(=O)(=O)O)cccc12` [1,5 NDS, 1,5 Naphthalene disulphonic acid], in experiment [2], the Rb/r1p is listed as 1.4, the Ka turned out to be 45.5 M⁻¹ and the Rb came to 6.3 mM⁻¹ s⁻¹.

In the case of `CNC(=O)CN(CCN(CCN(CC(=O)[O-])CC(=O)NC)CC(=O)[O-])CC(=O)[O-].[Gd+3]` [Omniscan], the Ka entry in experiment [1] is given as “no binding is observed; also recorded: No interaction”.

On to `O=C(O)COc1cc(S(=O)(=O)O)c2ccc3c(S(=O)(=O)O)cc(S(=O)(=O)O)c4ccc1c2c43` [CMPTS, 8-Carboxymethoxypyrene-1,3,6-trisulfonic acid], for which, in experiment [2], the Rb/r1p was determined as 1.8, the Ka was determined as 94.2 M⁻¹ and the Rb is 8.5 mM⁻¹ s⁻¹.

Take `Nc1cc(S(=O)(=O)O)c2ccc3c(S(=O)(=O)O)cc(S(=O)(=O)O)c4ccc1c2c43` [APTS, 8-Aminopyrene-1,3,6 trisulfonic acid]: in experiment [2], the Rb/r1p worked out at 1.6, the Ka was 319 M⁻¹ and the Rb stood at 7.6 mM⁻¹ s⁻¹.

`COc1cc(S(=O)(=O)O)c2ccc3c(S(=O)(=O)O)cc(S(=O)(=O)O)c4ccc1c2c43` [MPTS, 8-Methoxy-1,3,6 pyrene trisulfonic acid]: in experiment [2], the Rb/r1p came to 1.4, the Ka is 514 M⁻¹ and the Rb came out at 6.5 mM⁻¹ s⁻¹.

`O=S(=O)(O)c1cc(O)c2ccc3c(S(=O)(=O)O)cc(S(=O)(=O)O)c4ccc1c2c34` [HPTS, 8-Hydroxypyrene-1,3,6-trisulfonic acid]: in experiment [2], the Rb/r1p turned out to be 1.5, the Ka was determined as 628 M⁻¹ and the Rb worked out at 6.9 mM⁻¹ s⁻¹.

Turning to `O=C(O)CN1CCN(CC(=O)O)CCN(C(CO)C(O)CO)CCN(CC(=O)O)CC1` (stereo not shown) [Gadovist, Gadobutrol], the r1p in experiment [3] turned out to be 5.0 mM⁻¹ s⁻¹. Further, in experiment [1], the Ka was determined as 1157 M⁻¹ and the Rb is 7.9 mM⁻¹ s⁻¹.

In turn, `CC(O)CN1CCN(CC(=O)O)CCN(CC(=O)O)CCN(CC(=O)O)CC1` (stereo not shown) [ProHance] came in with a r1p in experiment [3] of 4.6 mM⁻¹ s⁻¹. Moreover, the “improvement of the relaxivity as a function of the magnetic field (NMRD profile)” value in experiment [4] is on record as “maintained over the whole range of magnetic field”. Also, the “mean signal enhancement, Enh %, in the tumor ROI” value in experiment [5] turned out to be 53%. Moreover, the “improvement of the relaxivity shown by the free complex” value in experiment [1] (20% of the complex in the form of a non-covalent adduct with HPTS) is on record as “about 10%”; in experiment [1] (60% of the complex in the form of a non-covalent adduct with HPTS), roughly 30%; in experiment [1] (99% of the complex in the form of a non-covalent adduct with HPTS), roughly 50%. Also, the Ka in experiment [1] stood at 628 M⁻¹. The “improvement of relaxivity in comparison with Prohance as-such” value in experiment [1] (molar ratio 1:3 of Prohance to HTPS) is reported as “about 30%”. In addition, the Rb in experiment [1] was 6.9 mM⁻¹ s⁻¹.

With `O=S(=O)(O)c1ccc(O)cc1` [HBSA, 4-Hydroxybenzenesulfonic acid], in experiment [2], the Ka entry is reported as “No binding; also recorded: No interaction”.

As for `O=S(=O)(O)c1cc(S(=O)(=O)O)c2ccc3c(O)cc(O)c4ccc1c2c43` [HPDS, 6,8-Dihydroxypyrene-1,3-disulfonic acid], in experiment [2], the Rb/r1p is recorded as 2.4, the Ka is 124 M⁻¹ and the Rb worked out at 10.9 mM⁻¹ s⁻¹.

As to `O=S(=O)(O)c1ccc2cc(S(=O)(=O)O)ccc2c1` [2,6 NDS, 2,6 Naphthalene disulphonic acid], in experiment [2], the Rb/r1p is listed as 1.2, the Ka was 94.4 M⁻¹ and the Rb was 5.4 mM⁻¹ s⁻¹.

Regarding `O=S(=O)(O)c1cc(S(=O)(=O)O)c2ccc3c(S(=O)(=O)O)cc(S(=O)(=O)O)c4ccc1c2c43` [PTS, 1,3,6,8 Pyrenetetrasulfonic acid], in experiment [2], the Rb/r1p was 1.6, the Ka was determined as 177 M⁻¹ and the Rb worked out at 7.3 mM⁻¹ s⁻¹.

As for `O=C(O)CN1CCN(CC(=O)O)CCN(CC(=O)O)CCN(CC(=O)O)CC1` [Dotarem], the r1p in experiment [3] was determined as 4.2 mM⁻¹ s⁻¹. In addition, in experiment [1], the Ka came to 174 M⁻¹ and the Rb is 7.4 mM⁻¹ s⁻¹.

Compound `O=C([O-])CN1CCNCCN(CC(=O)[O-])CCN(CC(=O)[O-])CC1.[Gd+3]` [Gd-DO3A] had a r1p in experiment [3] of 6.2 mM⁻¹ s⁻¹. In addition, in experiment [1], the Ka came out at 246 M⁻¹ and the Rb came to 9.5 mM⁻¹ s⁻¹.

The values above are taken from patent US12226494B2, “Pharmaceutical compositions comprising Gd-complexes and polyarylene additives” (BRACCO IMAGING S.P.A., priority 2018, dated 2025).
